From patent EP4810483A1, “6- AND 5-HETEROARYL DERIVATIVES AND USE THEREOF” (CMS Research & Development Pte. Ltd., priority 2023, dated 2025)
Read-outs that look alike come from different tables or passages of the source.

What was measured:
[1] = biological target: T1, hKCNQ2/3 (Homo sapiens, UniProt O43525+O43526); assay: cell-based
T1 construct: expressed in transfected cells; host or cells: CHO
From the text: Test Method 1: hKCNQ2/3 Thallium Flux Assay
Test Objective: To test the in vitro concentration-response relationship of compounds using FLIPR thallium flux assay in CHO cell lines stably expressing hKCNQ2/3.
According to the split ratio, the cells were transferred to another T-75 flask containing complete cell growth medium. Note: To maintain logarithmic growth, the cells should be kept in a subconfluent monolayer state. Based on the cell doubling time, the cells were passaged every 2-3 days.
• (1) Day 1 - Cell preparation: Cells were digested as described above, and cell density and viability were determined using a Cell Countess. The volume of the single-cell suspension was adjusted with complete cell growth medium. Then, hKCNQ2/3_CHO cells were seeded onto PDL-precoated 384-well plates at a density of approximately 20,000 cells/well (30 µL/well). The plates were then incubated overnight in a 37°C, 5% CO2 humidified air incubator. • (2) Day 2 - Compound preparation: Test compounds were diluted with dimethyl sulfoxide (DMSO) to stock concentrations and stored in a -20°C freezer. A compound addition program was set up on the ECHO liquid handler, and compounds were added to the plates using the ECHO liquid handler. Retigabine (RTG) was used as a positive control at a highest concentration of 100 µM with 3-fold serial dilutions for a total of 9 doses. Buffer containing 5 mM K^+ and 1 mM Tl^+ was added to the plates. Notes: 1) K2SO4 and Tl2SO4 were prepared in 1× chloride-free buffer. Depending on the voltage-gated potassium channel involved, the concentrations of Tl^+ and K^+ should be adjusted. Tl^+ concentration is approximately 0.5-5 mM, and K^+ concentration is approximately 5-30 mM. 2) Each 1 mM solution of K2SO4 and Tl2SO4 contains 2 mM K^+ and Tl^+; the final concentration should be calculated based on the ion concentration. 3) TlCl readily precipitates and a chloride-free buffer is required. • (3) Day 2 -Assay testing: Once the cells reached the desired confluence, the cell assay plates were removed from the incubator. Assay buffer and diluted Tl^+ dye (Molecular Devices # R8222) were prepared. The medium was discarded using a Bravo liquid handler, and 25 µL of Tl^+ dye was added to each well. After 1 hour of incubation, the cell assay plates, composite plates and FLIPR tips were placed in the FLIPR^TETRA (Molecular Devices, USA) for FLIPR detection. After setting up the tips, baseline readings were taken for 60 seconds, then 12.5 µL was added from the composite plate (3×) to the cell assay plate, and data were recorded for at least 5 minutes. • (4) Data processing: Maximum signals were generated by the FLIPR software. […] Data quality control: S/B > 2.00, Z factor > 0.50.
• (1) Day 1 - Cell preparation: Cells were digested as described above, and cell density and viability were determined using a Cell Countess. The volume of the single-cell suspension was adjusted with complete cell growth medium. Then, hKCNQ2/3_CHO cells were seeded onto PDL-precoated 384-well plates at a density of approximately 20,000 cells/well (30 µL/well). The plates were then incubated overnight in a 37°C, 5% CO2 humidified air incubator. • (2) Day 2 - Compound preparation: Test compounds were diluted with dimethyl sulfoxide (DMSO) to stock concentrations and stored in a -20°C freezer. A compound addition program was set up on the ECHO liquid handler, and compounds were added to the plates using the ECHO liquid handler. Retigabine (RTG) was used as a positive control at a highest concentration of 100 µM with 3-fold serial dilutions for a total of 9 doses. Buffer containing 5 mM K^+ and 1 mM Tl^+ was added to the plates. Notes: 1) K2SO4 and Tl2SO4 were prepared in 1× chloride-free buffer. Depending on the voltage-gated potassium channel involved, the concentrations of Tl^+ and K^+ should be adjusted. Tl^+ concentration is approximately 0.5 mM -5 mM, and K^+ concentration is approximately 5 mM -30 mM.

[2] = test system: maximal electroshock-induced epilepsy model; assay: Maximal electroshock-induced epilepsy model, behavioral pharmacodynamics; format: in vivo; conditions: dose 5 mg/kg, oral, one hour before electrical stimulation; male CD-1 mice
From the text: Assay Example 2: Evaluation of the behavioral pharmacodynamics of the test compounds in a maximal electroshock-induced epilepsy model
This study used behavioral tests in male CD-1 mice to investigate the effects of test compounds on acute epileptic seizures behavior induced by maximal electroshock.
Male CD-1 mice (25 to 35g) were used as the experimental animals and fed with standard feed (Beijing Vital River Laboratory Animal Technology Co., Ltd.).
After arriving at the animal facility, the experimental animals needed to acclimatize for at least one week. The mice were observed daily for vital signs, and randomly divided into groups according to their body weights one day before the drug administration. One hour before the electrical stimulation, different dosages of the test compound were orally administered to each group. On the day of the assay, the male CD-1 mice in each group were anesthetized locally at the cornea with 2% lidocaine. Then, silver bipolar electrodes were used to electrically stimulate the cornea of the mice with 18 mA, 60 Hz, a pulse width of 0.6 ms, and a stimulation time of 1 s to induce seizures. Subsequently, the latency of seizures and the duration of limb rigidity in mice after the electrical stimulation were observed, and the protection rate from seizures for each group was statistically analyzed.

[3] = Pharmacokinetic evaluation in mice (IV and PO); format: in vivo; conditions: mouse, plasma, CD-1 mice; for half-life: IV, read-out: Half-life T1/2 (IV) (converted); for AUC(0-t): PO, read-out: Area under the concentration-time curve AUC0-last PO; for bioavailability: read-out: Bioavailability F; for clearance: read-out: Clearance CL; for Cmax: read-out: Peak plasma concentration Cmax; for Vd: read-out: Volume of distribution Vdss
Protocol: Test Method 2: Pharmacokinetic Evaluation in Mice
Assay method: Test compounds were mixed with 5% DMSO / 60% polyethylene glycol (PEG400) / 35% water, vortexed and sonicated to obtain a clear 0.2 mg/mL solution, which was then filtered through a microporous membrane before use. Male CD-1 mice weighing 25-35 g were selected. The candidate compound solution was administered intravenously at a dose of 1 mg/kg. The candidate compound solution was orally administered at a dose of 5 mg/kg after fasting. Blood samples (25 µL each) were collected at 0.083, 0.25, 0.5, 1, 2, 4, 8, 12 and 24 hours after administration, and placed into commercial anticoagulant tubes pre-containing EDTA-K2. The tubes were centrifuged for 10 minutes to separate plasma, which was then stored at -60°C. The content of the target compound in plasma samples was determined by LC/MS/MS method, and pharmacokinetic parameters were calculated using Phoenix WinNonlin software (Pharsight, USA).
Tlast: time of the last detection point. AUC0-last: (Area Under the Concentration-Time Curve) refers to the area enclosed by the plasma drug concentration curve and the time axis. F (Bioavailability) is a measure of the rate and extent to which a drug is absorbed into the systemic circulation, serving as a critical indicator for evaluating the degree of drug absorption. […]

T1 sequence (O43526 whole entry): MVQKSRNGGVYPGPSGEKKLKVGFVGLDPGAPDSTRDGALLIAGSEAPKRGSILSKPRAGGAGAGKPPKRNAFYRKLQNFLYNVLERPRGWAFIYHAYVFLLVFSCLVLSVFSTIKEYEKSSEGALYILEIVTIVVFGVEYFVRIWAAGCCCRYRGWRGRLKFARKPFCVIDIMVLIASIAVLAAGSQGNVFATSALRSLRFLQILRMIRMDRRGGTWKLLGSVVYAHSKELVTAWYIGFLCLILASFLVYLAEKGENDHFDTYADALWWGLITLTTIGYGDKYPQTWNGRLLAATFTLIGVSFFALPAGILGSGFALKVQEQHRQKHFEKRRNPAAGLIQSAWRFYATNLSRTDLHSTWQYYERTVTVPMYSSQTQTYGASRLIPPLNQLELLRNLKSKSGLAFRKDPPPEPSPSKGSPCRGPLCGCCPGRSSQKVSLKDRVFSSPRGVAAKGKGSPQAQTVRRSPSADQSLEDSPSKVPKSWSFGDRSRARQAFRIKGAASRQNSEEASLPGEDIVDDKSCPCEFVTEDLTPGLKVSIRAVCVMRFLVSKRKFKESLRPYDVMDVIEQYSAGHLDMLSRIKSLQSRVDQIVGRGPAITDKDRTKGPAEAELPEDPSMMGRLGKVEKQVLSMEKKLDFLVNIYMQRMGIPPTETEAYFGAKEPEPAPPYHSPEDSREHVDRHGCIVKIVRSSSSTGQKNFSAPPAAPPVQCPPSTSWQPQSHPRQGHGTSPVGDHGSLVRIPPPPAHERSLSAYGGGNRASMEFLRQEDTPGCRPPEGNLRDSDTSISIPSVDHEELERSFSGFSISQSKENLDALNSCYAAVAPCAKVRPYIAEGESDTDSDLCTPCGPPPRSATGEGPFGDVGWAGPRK
T1 sequence (O43525 whole entry): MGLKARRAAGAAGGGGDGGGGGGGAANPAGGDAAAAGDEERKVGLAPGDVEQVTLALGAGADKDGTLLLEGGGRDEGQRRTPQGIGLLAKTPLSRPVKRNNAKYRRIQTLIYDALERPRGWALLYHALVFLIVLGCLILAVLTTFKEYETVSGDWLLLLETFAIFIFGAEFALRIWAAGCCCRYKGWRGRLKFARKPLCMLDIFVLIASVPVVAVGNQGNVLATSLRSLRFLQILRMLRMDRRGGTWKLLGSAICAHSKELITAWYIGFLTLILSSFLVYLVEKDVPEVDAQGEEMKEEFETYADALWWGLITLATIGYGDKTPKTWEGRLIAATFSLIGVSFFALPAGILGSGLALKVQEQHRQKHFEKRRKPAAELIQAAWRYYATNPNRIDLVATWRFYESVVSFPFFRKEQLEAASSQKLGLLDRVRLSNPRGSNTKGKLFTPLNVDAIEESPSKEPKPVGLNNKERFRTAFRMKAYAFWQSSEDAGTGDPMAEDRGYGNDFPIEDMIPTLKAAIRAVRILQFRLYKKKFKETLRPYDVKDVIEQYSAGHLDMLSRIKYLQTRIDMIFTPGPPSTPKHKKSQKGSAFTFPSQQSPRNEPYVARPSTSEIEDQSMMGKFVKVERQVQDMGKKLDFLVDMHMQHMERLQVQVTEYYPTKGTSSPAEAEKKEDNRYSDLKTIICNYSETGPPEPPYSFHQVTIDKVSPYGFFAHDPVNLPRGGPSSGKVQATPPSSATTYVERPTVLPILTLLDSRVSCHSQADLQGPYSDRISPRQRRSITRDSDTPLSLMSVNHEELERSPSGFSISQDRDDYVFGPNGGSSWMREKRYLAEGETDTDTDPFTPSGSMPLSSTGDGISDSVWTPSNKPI

Compound | EC50 [1] [nM] | Seizure incidence (%) [2] [%] | half-life ([3]; dose IV:0.5, PO:2 mg/kg) [h] | half-life ([3]; dose IV:1, PO:5 mg/kg) [h] | AUC(0-t) ([3]; dose IV:0.5, PO:2 mg/kg) [µM·h] | AUC(0-t) ([3]; dose IV:1, PO:5 mg/kg) [µM·h] | bioavailability ([3]; dose IV:0.5, PO:2 mg/kg) [%] | clearance ([3]; dose IV:0.5, PO:2 mg/kg) [mL/min/kg] | Cmax ([3]; dose IV:0.5, PO:2 mg/kg) [nM] | Vd ([3]; dose IV:0.5, PO:2 mg/kg) [L/kg] | bioavailability ([3]; dose IV:1, PO:5 mg/kg) [%] | clearance ([3]; dose IV:1, PO:5 mg/kg) [mL/min/kg] | Cmax ([3]; dose IV:1, PO:5 mg/kg) [nM] | Vd ([3]; dose IV:1, PO:5 mg/kg) [L/kg]
Cc1c(NC(=O)CC(C)(C)C)n(C)c2cc(Nc3ccc(F)cc3)ccc12 [Compound 1] | 960 | 16.7 | 1.83 | 1.63 | 2.04 | 4.57 | 79.6 | 34.8 | 322 | 5.16 | 83.9 | 41.8 | 596 | 5.06
Cc1nc(Nc2ccc3c(C)c(NC(=O)CC(C)(C)C)n(C)c3c2)ccc1F [Compound 41] | 290 | 0 |  | 0.7 |  | 21.4 |  |  |  |  | 78.2 | 8.9 | 4580 | 0.6
Cc1c(NC(=O)CC(C)(C)C)n(C)c2cc(Nc3ccc(C(F)(F)F)cc3)ccc12 [Compound 5] | 520 | 16.7 | 5.9 |  |  |  | 64 | 9.1 |  | 3.97 |  |  |  | 
